Reference: patent publication US9538749B2, “Methods for increasing oil palm yield” (Valent BioSciences Corporation, priority 2014, dated 2017)
“And” between values parts separate entries of the source, which are not always exact repeats. Identical values can stand only once.

Tests used:
oil palm fruit [1] = details: preharvest application to attached bunches; cited from earlier work
oil palm fruit [2] = assay: Field study of fruit abscission (cumulative loose fruit and loose mass) after a single bunch-directed preharvest spray; type: in vivo, oil palm (cross between Compact and Ghana); details: for Cumulative Loose Mass / % Difference with UTC (Cumulative Loose Fruit) / % Difference with UTC (Cumulative Loose Mass) / Cumulative Loose Fruit: single spray 100 mL/bunch; for Cumulative Loose Mass / % Difference with UTC (Cumulative Loose Fruit) / % Difference with UTC (Cumulative Loose Mass): 14 days; for % Difference with UTC (Cumulative Loose Fruit) / % Difference with UTC (Cumulative Loose Mass): vs untreated control; for Cumulative Loose Fruit: counted for 14 days
Protocol: A study was conducted in a plantation in Costa Rica to compare the effects of single bunch-directed applications of: (1) untreated control (water sprayed); (2) AVG at 500 ppm (59.5 g) active ingredient (a.i.); (3) 20 ppm (2.4 g) a.i. of 1-MCP; (4) 67 ppm (8.0 g) a.i. of 1-MCP; and (5) 200 ppm (23.8 g) a.i. of 1-MCP. Total g a.i./ha for each treatment was calculated assuming 7 bunches per palm and 170 palms per ha. In this study, AVG and 1-MCP were provided in a formulation as AVG-HC1 and 1-MCP at concentrations of 20% and 1.3%, respectively.
For each treatment, 27 palms were randomly selected covering about 15 hectares. The variety of plants used was a cross between Compact and Ghana. The plants were three years old at the time of treatment. A CO2 sprayer was used to spray all treatments (100 mL/bunch) to bunches with 1 to 4 loose fruits. The time required to spray each bunch was about 8 seconds at 20 psi using a 2.0 full cone nozzle. The treatments were applied once per bunch. Four, six, four, three and ten bunches per treatment were sprayed on Feb. 6, 13, 20, 27 and Mar. 3, 2015, respectively.
Cumulative loose fruit (CLF) and cumulative loose mass (CLM) counts were determined on a daily basis for 14 days with the exception of days 2 and 9 after initial spray as measure to objectively quantify fruit abscission. An electronic balance was used to weigh all fruit. All loose fruit on the bunch, branches and on the ground was counted and weighted.

oil palm fruit [3] = details: postharvest application; cited from earlier work

Row | Structure (SMILES) | Increase of oil content (oil palm fruit [1]) | Cumulative Loose Mass (oil palm fruit [2]; 20 ppm (2.4 g a.i./ha)) | % Difference with UTC (Cumulative Loose Fruit) (oil palm fruit [2]; 20 ppm (2.4 g a.i./ha)) | % Difference with UTC (Cumulative Loose Mass) (oil palm fruit [2]; 20 ppm (2.4 g a.i./ha)) | Cumulative Loose Fruit (oil palm fruit [2]; 20 ppm (2.4 g a.i./ha)) | Cumulative Loose Mass (oil palm fruit [2]; 67 ppm (8.0 g a.i./ha)) | % Difference with UTC (Cumulative Loose Fruit) (oil palm fruit [2]; 67 ppm (8.0 g a.i./ha)) | % Difference with UTC (Cumulative Loose Mass) (oil palm fruit [2]; 67 ppm (8.0 g a.i./ha)) | Cumulative Loose Fruit (oil palm fruit [2]; 67 ppm (8.0 g a.i./ha)) | Cumulative Loose Mass (oil palm fruit [2]; 200 ppm (23.8 g a.i./ha)) | % Difference with UTC (Cumulative Loose Fruit) (oil palm fruit [2]; 200 ppm (23.8 g a.i./ha)) | % Difference with UTC (Cumulative Loose Mass) (oil palm fruit [2]; 200 ppm (23.8 g a.i./ha)) | Cumulative Loose Fruit (oil palm fruit [2]; 200 ppm (23.8 g a.i./ha)) | Effect on oil palm fruit drop (oil palm fruit [2]; preharvest bunch spray, 20, 67 and 200 ppm) | Effect on oil content (oil palm fruit [3]) | Effect on ripening of oil palm fruit (oil palm fruit [3])
1 | O=P(O)(O)CCCl [ethephon, 2-chloroethyl phosphonic acid] | 7% | – | – | – | – | – | – | – | – | – | – | – | – | – | – | –
2 | CC1=CC1 [1-MCP, 1-methylcyclopropene] | – | 1465 g | 6.7% | 17.1% | 138.8 | 1163 g | 28.6% | 34.2% | 106.2 | 1149 g | 29.6% | 36.0% and 35.0% | 104.7 | delayed palm oil fruit drop | reduced oil content | delayed ripening
